row,Compound,melting point
1,O=C(NCc1ccccc1)c1ccc(OC2CCCC2)c2oc3ccccc3c12,172 to 175 °C
2,CC1=C(C=O)COc2ccccc21,68 to 70 °C
3,CN1CCC[C@@H]1Cc1c[nH]c2ccc(CS(=O)(=O)NC(C)(C)C)cc12,73 to 75 °C
4,CCC1(NC2=NS(=O)(=O)c3sc(Cl)cc3N2)CCC1,244 to 246 °C
5,COc1ccc2sc(C(N)=O)c(SC(C)C)c2c1,143 to 144 °C
6,COc1cc(COc2cc(N)c(Cl)cc2C(=O)CCCCN2CCCCCC2)cc(OC)c1,137 to 139 °C
7,O=C([C@H]1CC[C@H](Nc2ncc3ncnc(Nc4ccc(F)c(Cl)c4)c3n2)CC1)N1CCOCC1,221 to 225 °C
8,CCCc1nnc(CCc2cc(OCc3ccc(OCc4nc(-c5ccccc5)oc4C)c(OC)c3)nn2-c2ccccc2)o1,85 to 86 °C
9,Nc1nc(NCCc2cc(Br)cs2)nc2c1ncn2C1OC(CO)C(O)C1O (stereo unspecified),136 to 144 °C
10,N#Cc1cc2cc(F)c(F)cc2o1,103 °C
11,CN(C)CC(=O)N1c2ccccc2N(C)C(=O)c2cnc(-c3ccccc3)nc21,207 to 208 °C
12,CC(C)(C)C1=CC(=Nc2ccc(CC#N)cc2)C=C(C(C)(C)C)C1=O,126 to 128 °C
13,O=C(O)C(CCc1ccccc1)NS(=O)(=O)c1ccc2c(c1)S(=O)(=O)c1ccccc1O2 (stereo unspecified),170 to 174 °C
14,CC(C)Oc1n[nH]c(=O)n1C1CC1,146 to 147 °C
15,CNc1nnc2ccc(-c3cccc(N(C)C(C)=O)c3)nn12,213 to 215 °C
16,COc1cc2ncnc(N3CCC(O)(CCN4C=CC(C)=NS4(=O)=O)CC3)c2cc1OC,203 to 204 °C
17,COc1cn(-c2ccc(-n3nccc3O)cc2F)nc(-c2ccnn2-c2ccccc2)c1=O,221 to 229 °C
18,O=C1C=C(O[C@@H]2c3cc([N+](=O)[O-])ccc3OC(CF)(CF)[C@H]2O)CC1 (relative stereo),206 to 208 °C
19,CCOC(=O)c1cnc2ccc(OCC)nc2c1O,275 to 278 °C
20,COc1cccc2c(C(F)(F)F)cc(C)nc12,112 to 113 °C
21,C=C(Cl)CN1C(=O)c2ccccc2Oc2ncccc21,106 to 108 °C
22,Oc1ccc(Nc2cnc3cnc(-c4ccc(O)cc4)nc3c2)cc1,168 to 170 °C
23,CCOC(=O)c1sc2cc(OCc3cccnc3)ccc2c1S(=O)(=O)c1ccccc1,120 to 122 °C
24,O=c1cc(O)nc2cc(C(c3c(F)ccc(F)c3F)S(=O)(=O)CCC(F)(F)F)c(Cl)cn12 (stereo unspecified),264 °C
25,COc1cc2nc(Cl)n3ncnc3c2cc1OC,258 to 260 °C
26,CN1CCN(c2nc(C(F)(F)F)cs2)CC1,62 °C

row,Compound,melting point
1,CCC(O)(c1ccc(F)cc1)c1ccc(OCCCN2CCN(Cc3ccccc3)CC2)cc1 (stereo unspecified),119 to 121 °C
2,CC(=O)Nc1cc(-c2sc(-c3ccc(S(C)(=O)=O)cc3)nc2-c2cccc(Cl)c2)ccn1,216 to 217 °C
3,CC(=O)NC[C@H]1CN(c2ccc(N3CCC(=C(C#N)C(=O)N4CCCC4)CC3)c(F)c2)C(=O)O1,125 to 128 °C
4,Nc1nc2c(ncn2[C@@H]2C[C@H](O)[C@@H](O)[C@H]2O)c(=O)[nH]1 (racemic),295 °C
5,Fc1ccc(Cn2c(NC3CCNCC3)nc3ccccc32)cc1,216 °C
6,COC1=CC(=O)N(CC(=O)OCc2ccccc2)C1,129 to 130 °C
7,O=C(O)CNC(=O)N1CCc2cc(S(=O)(=O)N3CCN(c4cccc(Cl)c4)CC3)ccc21,214 °C
8,Cc1ccc(-c2nc(CCOc3ccc(CN(O)C(N)=O)cc3)c(C)o2)cc1,145 to 146 °C
9,CNC(=S)C1=CC(C)(C)Oc2ccc([N+](=O)[O-])cc21,147 to 148 °C
10,ONCC1CCCCC1,61 to 63 °C
11,COc1ccc(N2CCOCC2)c2sc(C(=O)NCC(=O)c3cccs3)nc12,165 °C
12,CC(C)(C)OC(=O)N1C(=O)[C@@H](O[Si](C)(C)C)[C@H]1c1ccccc1,85 to 88 °C
13,CSc1cc2c(cc1C(F)(F)F)N(C(=O)Nc1cccc(C(=O)Nc3cccnc3)c1)CC2,195 to 197 °C
14,COc1ccc2nc(-n3nc4c(c3O)-c3ccccc3CC4)sc2c1,204 to 205 °C
15,C(#Cc1cccs1)c1ccccc1,49 to 59 °C
16,Oc1ccccc1OCC(F)(F)F,49 to 50 °C
17,CCOC(=O)c1ncc2[nH]c3ccc(Br)cc3c2n1,286 to 290 °C
18,O=C(O)C(Sc1nc2ccc(Cl)nc2s1)c1ccc(Cl)cc1 (stereo unspecified),144 to 146 °C
19,COc1ccccc1COc1ccc(S(=O)(=O)c2cnc(C)nc2Nc2c(C)cc(C)cc2C)cc1,200 to 202 °C
20,CCCn1cc2c(C3C(=O)Nc4ccc(S(=O)(=O)N(C)C)cc43)nc(Cl)nc2n1 (stereo unspecified),> 300 °C
21,Cn1cnc(COc2nn3c(-c4ccccc4F)nnc3cc2C2(C)CCC(F)(F)CC2)n1,193 °C
22,N#CCNCNCC#N,83 to 85 °C
23,CCCc1[nH]c2ccc(OCc3ccc4ccccc4n3)cc2c1CC,91 °C
24,Nc1nc(SCc2ccccn2)nc(Cl)c1Br,119 to 120 °C
25,FC(F)(F)c1cc(Br)cc(C(F)(F)F)n1,92 to 95 °C
26,CN1Cc2cncn2-c2cccc(Br)c2C1=O,196 to 197 °C

row,Compound,melting point
1,O=S(=O)(c1ccccc1)n1ccnc1,82 to 83 °C
2,COc1ccc(Cc2nccc3cc(O)ccc23)cc1OC,190 to 192 °C
3,CN(C)c1ccc(NC(=O)Nc2ccc3c(ccn3C)c2)cn1,220 to 226 °C
4,CCOc1nn(-c2ccc(C(F)(F)F)cn2)cc1CCCOc1ccc(Cl)cc1CC(=O)O,130 to 131 °C
5,Oc1ccc2nc(-c3ccc(O)c(C45CC6CC(CC(C6)C4)C5)c3)[nH]c2c1,241 to 243 °C
6,COc1cccc2cc(C(=O)c3ccc(Cl)c([N+](=O)[O-])c3)oc12,136 °C
7,CC(C)OC(=O)C(C(=O)Nc1nccs1)=C1SCS1,174 to 175 °C
8,Cn1cccc1CCNC(=O)Cn1c(-c2ccc(Cl)cc2)nc2cccnc21,171 to 172 °C
9,CCn1c(=O)c2c(nc(C=Cc3cccc(C(=O)O)c3)n2C)n(CC)c1=O,260 to 262 °C
10,C=C1C(NC(=O)C(F)(F)F)CC(OC)OC1C (stereo unspecified),160 to 162 °C
11,CC[C@H](C)[C@H](NC(=O)[C@@H]1CCCN1CC(=O)[C@H](Cc1ccccc1)NC(=O)OCc1ccccc1)C(=O)NCC(C)C,80 to 81 °C
12,Clc1nc2ccccc2c2c(CCC3CCNCC3)n(-c3ccccc3)nc12,194 °C
13,O=C(O)c1ccc(=O)n(CCCNC(=O)c2ccccn2)c1,180 to 182 °C
14,Cc1ccccc1C=CCN1CCc2nc(N)sc2CC1,112 to 115 °C
15,CCOC(=O)C1=C(C)NC(N)=C(C(=O)OCCOC)C1c1cccc([N+](=O)[O-])c1 (stereo unspecified),174 °C
16,Nc1ccc(-c2cc(=O)c(C(=O)O)cn2-c2ccc(F)cc2)cc1,262 to 266 °C
17,CCOC(=O)c1c(CN(CC)CC)nc2sc(C)c(C)c2c1-c1ccc(OC)cc1,116 to 118 °C
18,CCC(=O)N1CCC(C(=O)OC2c3ccccc3C(=O)N2c2ccc3ccc(Cl)nc3n2)CC1 (stereo unspecified),189 °C
19,N#Cc1ccccc1-c1ccc(O)cc1,176 to 178 °C
20,CNC(=O)c1cc2nc(C(F)(F)F)ccc2cc1NC(=O)c1cc(Br)nn1-c1ncccc1Cl,127 to 129 °C
21,O=C1c2ccccc2C(=O)N1C/C=C/CCl,108 to 110 °C
22,CC(=O)Nc1cc(C(=O)c2ccccc2)ccc1[N+](=O)[O-],97.8 °C
23,CS(=O)(=O)N1CCC2OC2CC1 (stereo unspecified),133 to 134 °C
24,CCCCC(=O)Nc1c(C(=O)c2ccccc2)[nH]c2cc(Cl)ccc12,140 to 143 °C
25,COc1ccccc1N1CCN(CC(O)COc2ccc(OCc3ccccc3)c(C(C)(C)C)c2)CC1 (stereo unspecified),133 to 134 °C
26,CCOC(=O)C(=CNc1cc(C)nn1-c1ccccn1)C(=O)OCC,128 to 131 °C

row,Compound,melting point
1,CCCCCCCCOc1ccc(C#N)c(O)c1,69 to 71 °C
2,O=C1OCCC1Oc1cc(F)ccc1[N+](=O)[O-] (stereo unspecified),98 to 100 °C
3,O=C1CCCCC1C(=S)Nc1ccc(Br)cc1F (stereo unspecified),94 to 95 °C
4,CC1(c2ccccc2)OC(C=Cc2ccc(C#N)cc2)=CC1=O (stereo unspecified),187 to 188 °C
5,Oc1ccccc1-c1nnco1,112 to 113 °C
6,O=C(NCCc1ccc(O)c(O)c1)C12CC3CC(CC(C3)C1)C2,198 to 200 °C
7,c1ccc(N2CCN(c3nsc4nc5ccccc5n34)CC2)nc1,176 to 178 °C
8,COC(=O)Cc1ccccc1NC(=S)N(C)C,110 to 113 °C
9,Cc1cc(C)nc(NC(=O)NS(=O)(=O)c2ccccc2OCCO)n1,183 to 190 °C
10,O=C(Nc1cnc(N2CCCC2)cc1C(F)(F)F)c1cc2cc(C(F)(F)F)cnc2n1Cc1cccc(F)c1,207 to 208 °C
11,CCc1c(CC(=O)NCCCCCCNC(=O)Cc2ccc(OC)c(OC)c2CC)ccc(OC)c1OC,169 to 172 °C
12,O=c1[nH]cnc(C(F)(F)F)c1Cl,191 to 192 °C
13,COc1cccc2c1CC(CC(=O)O)C(=O)C2 (stereo unspecified),129 to 131 °C
14,"O=c1[nH]c2cc(Cl)ccc2n1C1CCN(CC2=NOC(c3ccc(F)cc3)C2)CC1 (single isomer, unassigned; (-))",143 to 145 °C
15,COC(=O)CC(C)C(=O)c1ccc2c(c1)OCC(=O)N2 (stereo unspecified),95 to 98 °C
16,O=C(Nc1ccc(SC(F)(F)F)cc1)c1ccc2c(c1O)CCCC2,167 °C
17,C=CCC(NC(=O)c1ccc(OC)cc1)C(C)=O (stereo unspecified),58 to 59 °C
18,O=S1(=O)C(CN2CCCCC2)=Cc2ccc(Cl)cc21,154 to 156 °C
19,Cn1c(=O)c(C(=O)NC2CCCCC2)c(O)c2cc(F)ccc21,193 °C
20,Cc1nc2ccccc2c(NCC(C)O)c1Br (stereo unspecified),147 to 149 °C
21,COC(=O)c1cc(C)c(NC(=O)c2cc(C(F)(F)F)nn2-c2ncccc2Cl)c(C(=O)NC(C)C)c1,199 to 200 °C
22,O=C(O)Cc1cn(Cc2ccc(OCc3ccccc3)cc2)nc1-c1ccc(F)cc1,194 to 195 °C
23,COc1ccc2c(c1)S(=O)(=O)N(C(OC(=O)c1sccc1Cl)C(C)C)C2=O (stereo unspecified),138 to 140 °C
